Test results taken from patent US20210112813A1, “HERBICIDAL COMPOSITION AND USE THEREOF” (NANTONG JIANGSHAN AGROCHEMICAL & CHEMICALS CO., LTD., priority 2019, published 2021).

Assays:
Type in all cases: in vivo
[1] = system: Horseweed herb (collected from Shenyang, Liaoning); assay: Example 13 combined effect on weeds, Gowing method
Protocol: (§1) The weed cultivation and test material cultivation method was as follows: quantitative weed seeds abutilon and bristlegrass were respectively sown in a paper cup filled with nutrient soil with a diameter of 7 cm, and then cultivated in the greenhouse after covering the soil, suppressing and watering. The stem and leaf spray treatment was performed when the grass weeds grew to 5-7 leaf stage, and broad-leaved weeds grew to 6-8 leaf stage; the tests were repeated for 3 times. the treatment and drug solution naturally dried, the weeds were placed in the greenhouse to be managed according to conventional methods. According to the suppression or death of the weeds, a visual control effect investigation was conducted 30 days after the treatment.
(§2) The application adopted the Gowing method to evaluate the combined effect of the proposed composition.
(§3) X—Weed control effect when the amount of herbicide component A is P;
(§4) Y—Weed control effect when the amount of herbicide component B is Q;
(§5) E0—Theoretical control effect when the amount of herbicide component A is […];
(§6) E—The measured control effect after the herbicide component A and the herbicide component B are mixed according to the above ratio.
(§7) When E−E0>10%, it is synergism; when E−E0<−10%, it is antagonism; when E−E0 value is between ±10%, it is addition.
(§8) The test targets were horseweed herb collected from Shenyang, Liaoning and goosegrass collected from Zhengzhou, Henan.

[2] = system: goosegrass (collected from Zhengzhou, Henan); assay: Example 13 combined effect on weeds, Gowing method
Protocol: as §1, §2, §3, §4, §5, §6, §7, §8

[3] = system: Amaranthusretroflexus; assay: Greenhouse pot test (treatment timing not given, Table 7), visual control effect, Gowing method
[4] = system: Lambsquarters; assay: Greenhouse pot test, pre-emergence soil treatment, visual control effect 30 days after treatment, Gowing method
[5] = system: Abutilon; assay: Greenhouse pot test (treatment timing not given, Table 6), visual control effect, Gowing method
Protocol: (§9) In the present application, indoor combined action of the compound of herbicide active component A and B on weeds was measured to determine the combined effect of the composition on weeds, wherein the structure of the active component A was as follows:
(§10) The weed cultivation method was as follows: quantitative weed seeds abutilon and bristlegrass were respectively sown in a paper cup filled with nutrient soil with a diameter of 7 cm, and then cultivated in the greenhouse after covering the soil, suppressing and watering. The post-emergence stem and leaf treatment was performed when the grass weeds grew to 5-7 leaf stage, broad-leaved weeds grew to 6-8 leaf stage; the pre-emergence soil treatment was performed the second day after sowing, and the early post-emergence treatment was performed after sowing and before emergence; the experiment was repeated 3 times. After the treatment and drug solution naturally dried, the weeds were placed in the greenhouse to be managed according to conventional methods. According to the suppression or death of the weeds, a visual control effect investigation was conducted 30 days after the treatment. The application adopted the Gowing method to evaluate the combined effect of the proposed composition.
as §3, §4, §5, §6, §7

[6] = system: Bristlegrass; assay: Example 12 indoor pot experiment, stem and leaf spray, visual control effect 30 days after treatment, Gowing method
Protocol: (§11) The combined effect of the composition on the weeds was clarified by the indoor pot experiment.
as §1, §2, §3, §4, §5, §6, §7

[7] = system: Abutilon; assay: as above
Protocol: as §11, §1, §2, §3, §4, §5, §6, §7

[8] = system: Eclipta alba; assay: Greenhouse pot test, pre-emergence soil treatment, visual control effect 30 days after treatment, Gowing method
[9] = system: Bristlegrass; assay: Greenhouse pot test, post-emergence stem and leaf treatment, visual control effect 30 days after treatment, Gowing method
Protocol: as §9, §10, §3, §4, §5, §6, §7

[10] = system: Abutilon; assay: as above
Protocol: as §9, §10, §3, §4, §5, §6, §7

[11] = system: Bristlegrass; assay: Greenhouse pot test, pre-emergence soil treatment, visual control effect 30 days after treatment, Gowing method
Protocol: as §9, §10, §3, §4, §5, §6, §7

[12] = system: Abutilon; assay: as above
Protocol: as §9, §10, §3, §4, §5, §6, §7

[13] = system: Bristlegrass; assay: Greenhouse pot test (treatment timing not given, Tables 6 and 7), visual control effect, Gowing method
Protocol: as §9, §10, §3, §4, §5, §6, §7

[14] = system: Echinochloacrusgalli; assay: Example 15 indoor pot planting, death rate / herbicidal speed, weeds in 6-leaf stage
Protocol: (§12) The death rate of weeds after application of the herbicidal composition of the present application was measured and compared with the herbicidal rate when a single component was used. The test used the method of indoor pot planting. At the time of treatment, abutilon and barnyardgrass were in 6-leaf stage.

[15] = system: Abutilon; assay: as above
Protocol: as §12

[16] = Example 13 Table 2, dose 3.75 ga.i./hm^2
[17] = Example 13 Table 2, dose 7.5 ga.i./hm^2
[18] = Example 13 Table 2, dose 15 ga.i./hm^2
[19] = Example 13 Table 2, dose 30 ga.i./hm^2
[20] = Example 12 Table 1, dose 3.75 ga.i./hm^2
[21] = Example 12 Table 1, dose 7.5 ga.i./hm^2
[22] = Example 12 Table 1, dose 15 ga.i./hm^2
[23] = Example 12 Table 1, dose 30 ga.i./hm^2
[24] = Table 11, 7 days after treatment, dose 15 ga.i./hm^2
[25] = Table 11, 7 days after treatment, dose 30 ga.i./hm^2
[26] = Table 11, 7 days after treatment, dose 60 ga.i./hm^2
[27] = Table 11, 7 days after treatment, dose 120 ga.i./hm^2
[28] = Table 11, 15 days after treatment, dose 15 ga.i./hm^2
[29] = Table 11, 15 days after treatment, dose 30 ga.i./hm^2
[30] = Table 11, 15 days after treatment, dose 60 ga.i./hm^2
[31] = Table 11, 15 days after treatment, dose 120 ga.i./hm^2
[32] = Table 11, 30 days after treatment, dose 15 ga.i./hm^2
[33] = Table 11, 30 days after treatment, dose 30 ga.i./hm^2
[34] = Table 11, 30 days after treatment, dose 60 ga.i./hm^2
[35] = Table 11, 30 days after treatment, dose 120 ga.i./hm^2

With CCOC(=O)C1(C)CC(c2cc(-n3c(=O)cc(C(F)(F)F)n(C)c3=O)c(F)cc2Cl)=NO1 (centres unmarked) [active component A, 3-(2-chloro-4-fluoro-5-(3-methyl-2,6-dioxo-4-trifluoromethyl-3,6-dihydropyrimidine-1(2H)-yl)phenyl)-5-methyl-4,5-dihydroisoxazole-5-carboxylic acid ethyl ester] the “Measured value E” value [1, 16] was 10%, the “Measured value E” value [1, 17] was 30% and the “Measured value E” value [1, 18] was 35%. The “Measured value E” value [1, 19] was 55%, the “Measured value E” value [2, 16] was 5% and the “Measured value E” value [2, 17] was 15%. The “Measured value E” value [2, 18] was 30%, the “Measured value E” value [2, 19] was 45% and the “Measured value E” value ([3]; dose 15 ga.i./hm^2) was 20%. For the same molecule, the “Measured value E” value ([3]; dose 30 ga.i./hm^2) was 65%, the “Measured value E” value ([4]; Table 1, dose 7.5 ga.i./hm^2) was 5% and the “Measured value E” value ([4]; Table 1, dose 15 ga.i./hm^2) was 20%. The “Measured value E” value ([4]; Table 2, dose 15 ga.i./hm^2) was 15%, the “Measured value E” value ([4]; Table 2, dose 22.5 ga.i./hm^2) was 25% and the “Measured value E” value ([5]; dose 15 ga.i./hm^2) was 35%. For the same molecule, the “Measured value E” value ([5]; dose 60 ga.i./hm^2) was 45%, the “Measured value E” value [6, 20] was 5% and the “Measured value E” value [6, 21] was 10%. The “Measured value E” value [6, 22] was 15%, the “Measured value E” value [6, 23] was 25% and the “Measured value E” value [7, 20] was 10%. For the same molecule, the “Measured value E” value [7, 21] was 25%, the “Measured value E” value [7, 22] was 40% and the “Measured value E” value [7, 23] was 55%. For the same molecule, the “Measured value E” value ([8]; Table 3, dose 7.5 ga.i./hm^2) was 0%, the “Measured value E” value ([8]; Table 3, dose 15 ga.i./hm^2) was 10% and the “Measured value E” value ([9]; Table 5, dose 7.5 ga.i./hm^2) was 5%. The “Measured value E” value ([9]; Table 5, dose 15 ga.i./hm^2) was 10%, the “Measured value E” value ([10]; Table 5, dose 7.5 ga.i./hm^2) was 10% and the “Measured value E” value ([10]; Table 5, dose 15 ga.i./hm^2) was 15%. The “Measured value E” value ([11]; Table 1, dose 7.5 ga.i./hm^2) was 0%, the “Measured value E” value ([11]; Table 1, dose 15 ga.i./hm^2) was 15% and the “Measured value E” value ([11]; Table 2, dose 15 ga.i./hm^2) was 10%. The “Measured value E” value ([11]; Table 2, dose 22.5 ga.i./hm^2) was 25%, the “Measured value E” value ([11]; Table 3, dose 7.5 ga.i./hm^2) was 0% and the “Measured value E” value ([11]; Table 3, dose 15 ga.i./hm^2) was 10%. For the same molecule, the “Measured value E” value ([11]; Table 4, dose 15 ga.i./hm^2) was 10%, the “Measured value E” value ([11]; Table 4, dose 30 ga.i./hm^2) was 15% and the “Measured value E” value ([12]; Table 4, dose 15 ga.i./hm^2) was 5%. The “Measured value E” value ([12]; Table 4, dose 30 ga.i./hm^2) was 20%, the “Measured value E” value ([13]; Table 6, dose 15 ga.i./hm^2) was 10% and the “Measured value E” value ([13]; Table 6, dose 60 ga.i./hm^2) was 35%. The “Measured value E” value ([13]; Table 7, dose 15 ga.i./hm^2) was 20%, the “Measured value E” value ([13]; Table 7, dose 30 ga.i./hm^2) was 50% and the “Control effect (visual observation %)” value [14, 24] was 16.6%. The “Control effect (visual observation %)” value [14, 25] was 18.0%, the “Control effect (visual observation %)” value [14, 26] was 31.0% and the “Control effect (visual observation %)” value [14, 27] was 34.3%. For the same molecule, the “Control effect (visual observation %)” value [14, 28] was 18.4%, the “Control effect (visual observation %)” value [14, 29] was 19.8% and the “Control effect (visual observation %)” value [14, 30] was 36.7%. The “Control effect (visual observation %)” value [14, 31] was 40.7%, the “Control effect (visual observation %)” value [14, 32] was 20.9% and the “Control effect (visual observation %)” value [14, 33] was 43.2%. The “Control effect (visual observation %)” value [14, 34] was 32.9%, the “Control effect (visual observation %)” value [14, 35] was 42.5% and the “Control effect (visual observation %)” value [15, 24] was 46.0%. For the same molecule, the “Control effect (visual observation %)” value [15, 25] was 68.1%, the “Control effect (visual observation %)” value [15, 26] was 82.4% and the “Control effect (visual observation %)” value [15, 27] was 94.3%. The “Control effect (visual observation %)” value [15, 28] was 54.0%, the “Control effect (visual observation %)” value [15, 29] was 62.4% and the “Control effect (visual observation %)” value [15, 30] was 93.8%. The “Control effect (visual observation %)” value [15, 31] was 100%, the “Control effect (visual observation %)” value [15, 32] was 38.6% and the “Control effect (visual observation %)” value [15, 33] was 57.3%. For the same molecule, the “Control effect (visual observation %)” value [15, 34] was 100% and the “Control effect (visual observation %)” value [15, 35] was 100%.
